Data published in US20230272012A1, “PEPTIDES AND METHODS OF USE” (REALTA LIFE SCIENCES, INC., priority 2020, published 2023).
“Also recorded” adds a separate entry of the source. Bridge positions count the residues as written; N and C are the ends. Square brackets hold non-standard residues; d marks the D form. Ends that are not written are not given here. Peptide text beside a SMILES is read from it. R8 = C=CCCCCCC[C@@](C)(N)C(=O)O; S5 = C=CCCC[C@](C)(N)C(=O)O; Sar = CNCC(=O)O

Experiments:
[1] = system: antibody-initiated complement activation (human O sera and AB red blood cells); assay: ABO incompatibility hemolytic assay of complement activity (CH50-type); format: cell-based; conditions: peptide 0.8 mg/ml (~0.5 mM)
Experimental: (§1) FIG. 1A-1B show PIC1 peptides' inhibition of complement activation in an ABO incompatibility assay. […] Inhibition of ABO incompatibility hemolysis in a CH50-type assay. Peptides are at a final concentration of 0.5 mM. Values are represented as a percent of the positive control, which consists of human O sera and AB red blood cells in GVBS^++ buffer. Data are the means of n=3 independent experiments±SEM.
(§2) For hemolytic complement assays, human red blood cells (RBCs) from type AB donors were purified, washed, and standardized to 1.0×10^9 cells/ml, as previously described. Human sera from type O donors at a 15% final concentration was combined with 0.5 mM of the peptides and the volume was brought up to 0.2 ml with GVBS^++ and 5.0×10^7 RBCs. The samples were incubated for 1 hour at 37° C. and then spun at 3,000 rpm for 5 minutes and the supernatant was collected and read at 412 nm. Values are represented as a percent of the positive control, which consists of human O sera and AB red blood cells in GVBS^++ buffer.
(§3) To assess the extent to which the peptide variants inhibit antibody-initiated complement activation, an ABO incompatibility ex vivo assay was utilized in which purified erythrocytes from a ‘type AB+’ donor are incubated with sera from a ‘type O’ subject containing anti-A and anti-B antibodies. Peptides were tested at a concentration of 0.8 mg/ml (˜0.5 mM). […] D-amino acid variants PA-0127 and PA-0133 decreased ABO hemolysis by 20% (P value=0.083) and 25% (P value=0.076), respectively. […]

[2] = as above; format: cell-based, human; conditions: human; peptide 0.8 mg/ml (~0.5 mM); read-out: decrease of ABO hemolysis compared to PA-C9Sar
Experimental: as §1, §2, §3

MPO = target: T1, MPO (Homo sapiens, UniProt P05164); assay: MPO activity assay (TMB oxidation); format: biochemical; conditions: half-maximal values from dose-response curves
T1 construct: purchased Lee BioSolutions (Maryland Heights, Mo.)
T1 sequence (P05164 49-745): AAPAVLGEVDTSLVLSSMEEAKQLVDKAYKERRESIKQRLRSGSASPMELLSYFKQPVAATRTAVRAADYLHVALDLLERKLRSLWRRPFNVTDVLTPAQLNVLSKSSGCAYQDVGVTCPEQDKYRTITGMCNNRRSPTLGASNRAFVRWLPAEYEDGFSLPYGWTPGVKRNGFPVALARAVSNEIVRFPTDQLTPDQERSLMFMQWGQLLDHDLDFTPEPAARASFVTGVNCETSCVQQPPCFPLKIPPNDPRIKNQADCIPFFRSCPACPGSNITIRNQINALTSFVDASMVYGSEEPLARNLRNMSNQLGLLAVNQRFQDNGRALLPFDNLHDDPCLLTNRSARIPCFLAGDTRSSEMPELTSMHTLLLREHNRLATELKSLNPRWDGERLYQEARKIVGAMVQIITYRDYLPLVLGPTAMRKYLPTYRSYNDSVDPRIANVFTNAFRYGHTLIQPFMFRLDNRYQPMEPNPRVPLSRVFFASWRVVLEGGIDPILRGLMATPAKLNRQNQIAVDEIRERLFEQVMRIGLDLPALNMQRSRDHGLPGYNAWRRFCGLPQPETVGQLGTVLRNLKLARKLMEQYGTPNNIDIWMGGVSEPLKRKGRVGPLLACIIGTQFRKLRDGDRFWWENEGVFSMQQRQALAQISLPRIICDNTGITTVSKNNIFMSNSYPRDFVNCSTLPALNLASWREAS
Experimental: The MPO activity assay was performed as previously described. Briefly, peptides were diluted to 12 mg/ml and serially titrated in a 96 well plate at a volume of 0.02 ml. MPO was diluted to 20 μg/ml and 0.02 ml was added to the titrated peptides. TMB (3,30,5,50-tetramethylbenzidine) (0.1 ml) was added to each well for 2 minutes, followed by 0.1 ml of 2.5 N H2SO4 for another 2 minutes, and then read on a 96 well plate reader (BioTek) at 450 nm.
The inventors also assessed the ability of RLS-0127* and RLS-0133* to inhibit MPO activity as determined by inhibition of oxidation of TMB in a plate-based assay. […] Additionally, the inventors assessed the ability of RLS-0127* and RLS-0133* to bind C1q in a plate-based assay in which C1q is coated on the plate and increasing amounts of the peptides are added, followed by primary antibody to the peptides and secondary antibody conjugated to HRP. The plate was then incubated with TMB to give a […] signal that is detected at a wavelength of 450 nm in a plate reader.

PD-1/PD-L1 interaction = target: T2, PD-1/PD-L1 interaction (Homo sapiens, UniProt Q15116+Q9NZQ7); assay: PD-1/PD-L1 Blockade Bioassay (Promega); format: cell-based; conditions: increasing peptide concentrations
T2 construct: host or cells: PD-1 effector cells; PD-L1 aAPC/CHO-K1 cells
T2 sequence (Q15116 25-288): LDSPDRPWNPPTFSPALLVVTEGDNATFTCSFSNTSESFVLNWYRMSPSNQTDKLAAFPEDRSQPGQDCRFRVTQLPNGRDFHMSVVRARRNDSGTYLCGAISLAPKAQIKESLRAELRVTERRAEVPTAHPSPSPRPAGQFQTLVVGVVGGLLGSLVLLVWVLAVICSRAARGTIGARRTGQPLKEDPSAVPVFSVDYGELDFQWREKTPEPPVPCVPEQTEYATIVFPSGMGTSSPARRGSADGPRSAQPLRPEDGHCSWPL
T2 sequence (Q9NZQ7 19-290): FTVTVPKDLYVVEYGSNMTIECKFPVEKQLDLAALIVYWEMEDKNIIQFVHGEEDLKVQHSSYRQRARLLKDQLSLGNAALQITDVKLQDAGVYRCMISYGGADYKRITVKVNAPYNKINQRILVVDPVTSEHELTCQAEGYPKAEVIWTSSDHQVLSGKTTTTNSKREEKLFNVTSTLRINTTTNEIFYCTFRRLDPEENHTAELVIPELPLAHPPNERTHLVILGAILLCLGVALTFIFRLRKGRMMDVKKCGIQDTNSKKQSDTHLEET
Experimental: PD-1 effector cells were incubated with PD1-L1 aAPC cells in the absence or presence of increasing concentrations of anti-PD-1 antibody (positive control) and select PIC1 peptides. Luminescence was detected in luminometer plate reader.
To assess if PIC1 peptides could block PD-1 inhibitory activity in a cell-based assay, select peptides were screened in the PD-1/PD-L1 Blockade Bioassay (Promega). The PD-1/PD-L1 Blockade Bioassay is a biologically relevant MOA-based assay that can be used to measure the potency and stability of antibodies and other biologics designed to block the PD-1/PD-L1 interaction. This bioluminescent cell-based assay is used to measure the potency and stability of molecules targeting PD-1 and consists of two genetically engineered cell lines: aAPC/CHO-K1 Cells are CHO-K1 cells with an engineered cell surface protein designed to activate cognate TCRs in an antigen-independent manner. When the two cell types are co-cultured, the PD-1/PD-L1 interaction inhibits TCR signaling and NFAT-mediated luciferase activity. Addition of an inhibitory molecule that blocks either PD-1 or PD-L1 releases the inhibitory signal and results in TCR signaling and NFAT-mediated luciferase activity.

[3] = Total Antioxidant Capacity (TAC) assay; conditions: highest peptide concentration 1.5 mM
Experimental: As previously reported, the TAC (Total Antioxidant Capacity) Assay (Cell Biolabs, Inc, San Diego, Calif.) was used to measure the antioxidant capacity of the PIC1 variants based on the reduction of copper (II) to copper (I). The kit protocol was performed per the manufacturer's recommendations.
The antioxidant properties for the PIC1 variants were evaluated in a Total Antioxidant Capacity (TAC) assay, as previously reported. Total antioxidant activity over a range of peptide concentrations were determined for the stapled and the D-amino acid peptides based on the PA-I8Sar and PA-C9Sar backbones (FIG. 8A-8D), with the activity of the highest peptide concentration reported (1.5 mM) (FIGS. 4A and B, respectively). […] For the D-amino acid variants, there was variation in the amount of antioxidant activity with the peptides having similar, slightly lower and slightly higher levels of total antioxidant capacity. In contrast, stapled peptides (PA-0135 through -0140) as well as combination of stapled and D-amino acid peptides had reduced total antioxidant capacity (FIG. 4A).

[4] = system: purified human Pan T-cells; assay: T-cell exhaustion protocol (Dynabeads re-stimulation); format: cell-based; conditions: peptides 2 mg/ml at each stimulation; supernatant ELISA
Experimental: Purified human pan-T-cells were subject to stimulation with Dynabeads every 48 hours over the period of 8 days with cells also receiving PIC1 peptides (2 mg/ml) at each stimulation. Cells not receiving Dynabeads were run in parallel to assess background levels of Caspase 3/7 signal. At the eighth day, cells were harvested and the levels of Caspase 3/7 determined by ELISA.
Purified human pan-T-cells were subject to stimulation with Dynabeads every 48 hours over the period of 8 days with cells also receiving PIC1 peptides (2 mg/ml) at each stimulation. Cell supernatants were collected at each stimulation and levels of IL-2 and IFN-gamma assayed by ELISA.
T-cell exhaustion is a form of T-cell dysfunction that occurs in cancer. It is defined by poor effector function, reduction in cytokine release (e.g., IL-2, TNF-alpha, IFN-gamma), sustained expression of inhibitory receptors (e.g., PD-1, LAG-3, CD244, CD160) with the progressive loss of effector function due to overstimulation. Exhaustion prevents optimal control of tumor growth. Exhausted T cells are prevalent in the tumor microenvironment (TME) and can lead to T-cell apoptosis. T-cell exhaustion is reversible, and pharmaceutical inhibition of T-cell exhaustion has been considered a promising strategy by many cancer researchers. To ascertain if PIC1 peptides could reverse T-cell exhaustion and increase T cell viability and effector function, a T-cell exhaustion protocol was developed. To induce T-cell exhaustion, purified human Pan T-cells were stimulated with T-Activator CD3/CD28 Dynabeads and cells are washed and re-stimulated every 48 hours. PIC1 peptides were added to the cells after each stimulation with Dynabeads. After three to four stimulations cells were harvested for readouts which consisted of assessing T-cell apoptosis by measuring Caspase 3/7 levels and production of cytokines IL-2 and IFN-gamma which is indicative of T-cell functionality. […] To further evaluate if PIC1 peptides could restore T-cell functionality in cells that have undergone the exhaustion protocol, the inventors next assessed production of cytokines IL-2 and IFN-gamma. Supernatants from the cells after each stimulation were collected and the cytokines measured by ELISA. […] The lower level of IFN-gamma signal compared to IL-2 was consistently seen in this assay.

CC[C@H](C)[C@H](N)C(=O)N[C@@H](C)C(=O)N[C@@H](CC(C)C)C(=O)N[C@H](C(=O)N[C@@H](CC(C)C)C(=O)N[C@@H](CCC(=O)O)C(=O)N1CCC[C@H]1C(=O)N[C@H](C(=O)N(C)CC(=O)N[C@@H](CS)C(=O)N[C@@]1(C)CCCC=CCCC[C@@](C)(C(=O)O)NC(=O)[C@H](C)NC(=O)[C@H](CCCNC(=N)N)NC(=O)[C@H](CCC(=O)O)NC1=O)[C@@H](C)CC)[C@@H](C)CC [PA-0155] (H-IALILEPI[Sar]C[S5]ERA[S5]-OH; staple 11-15)
inhibition of complement in the hemolytic assay compared to PA-C9Sar [1]: significant increase in complement inhibitory activity
decrease in ABO hemolysis compared to reference peptide at 1 h [2]: 64%
MPO inhibition compared with PA-C9Sar (MPO): decreased MPO inhibition
inhibition of PD-1/PD-L1 inhibitory signaling (luminescence) (PD-1/PD-L1 interaction): did not show PD-1/PD-L1 inhibitory activity

CC[C@H](C)[C@H](N)C(=O)N[C@@H](C)C(=O)N[C@@H](CC(C)C)C(=O)N[C@H](C(=O)N[C@@H](CC(C)C)C(=O)N[C@@H](CCC(=O)O)C(=O)N1CCC[C@H]1C(=O)N(C)CC(=O)N[C@@H](CS)C(=O)N[C@@H](CS)C(=O)N[C@@]1(C)CCCC=CCCC[C@@](C)(C(=O)O)NC(=O)[C@H](C)NC(=O)[C@H](CCCNC(=N)N)NC(=O)[C@H](CCC(=O)O)NC1=O)[C@@H](C)CC [PA-0116, IALILEP(Sar)CCS5ERAS5] (H-IALILEP[Sar]CC[S5]ERA[S5]-OH; staple 11-15)
total antioxidant capacity compared with PA-I8Sar [3]: increased activity; also recorded: superior antioxidant activity

IALILR8P(Sar)CCQES5AA (IALIL[R8]P[Sar]CCQE[S5]AA; bridges not given here; also: R8/S5 6-13 may or may not be stapled) [PA-0114]
total antioxidant capacity compared with PA-I8Sar [3]: reduction in total antioxidant capacity

IALILEdPI(Sar)CQERAA (IALILEPIXCQERAA; D-proline, sarcosine; MOD_RES (7)..(7) D-amino acid; MOD_RES (9)..(9) Sarcosine) [PA-0162]
inhibition of complement in the hemolytic assay compared to PA-C9Sar [1]: slightly less well
IL-2 signal at stimulation 2 [4]: showed an IL-2 signal at stimulation 2
inhibition of PD-1/PD-L1 inhibitory signaling (luminescence) (PD-1/PD-L1 interaction): did not show PD-1/PD-L1 inhibitory activity

IALR8LEPI(Sar)CS5ERAA (IAL[R8]LEPI[Sar]C[S5]ERAA; bridges not given here; also: R8/S5 4-11 may or may not be stapled) [PA-0147]
total antioxidant capacity compared with PA-C9Sar [3]: maintained similar activity
